Data: ChEMBL document CHEMBL2057188, “Hybridizing ability and nuclease resistance profile of backbone modified cationic phosphorothioate oligonucleotides” (Bioorg Med Chem, 2012)

What was measured:
Assay type in all cases: nucleic-acid assay
Nucleic Acid [1] = test: (§1) DNA hybridizing activity at single stranded DNA assessed as thermal stability of duplexes formed between compound and complimentary ssDNA by measuring melting temperature at 4 uM in presence of 10 mM pH 7.2 sodium phosphate buffer containing 100 mM NaCl by UV based melting experiment
Nucleic Acid [2] = test: as §1, with “measuring change in” for “measuring”, “experiment relative to untreated control” for “experiment”
Nucleic Acid [3] = test: (§2) DNA hybridizing activity at single stranded RNA assessed as thermal stability of duplexes formed between compound and complimentary ssRNA by measuring melting temperature at 4 uM in presence of 10 mM pH 7.2 sodium phosphate buffer containing 100 mM NaCl by UV based melting experiment
Nucleic Acid [4] = test: as §2, with “measuring change in” for “measuring”, “experiment relative to untreated control” for “experiment”
Nucleic Acid [5] = test: (§3) DNA hybridizing activity at 22 bp double stranded DNA assessed as thermal stability of duplexes formed between compound and complimentary dsDNA by measuring melting temperature at 1.5 uM in presence of 7 mM pH 5.5 sodium phosphate buffer containing 140 mM K, 10 mM MgCl2 by UV based melting experiment
Nucleic Acid [6] = test: as §3, with “measuring change in” for “measuring”

Compound | Tm (Nucleic Acid [1]) [°C] | ΔTm (Nucleic Acid [2]) [°C] | Tm (Nucleic Acid [3]) [°C] | ΔTm (Nucleic Acid [4]) [°C] | Tm (Nucleic Acid [5]) [°C] | ΔTm (Nucleic Acid [6]) [°C]
Cc1cn([C@H]2C[C@H](OP(=O)(O)OC[C@H]3O[C@@H](n4cc(C)c(=O)[nH]c4=O)C[C@@H]3OP(=O)(O)OC[C@H]3O[C@@H](n4cc(C)c(=O)[nH]c4=O)C[C@@H]3O[P@@](=O)(OC[C@H]3O[C@@H](n4cc(C)c(=O)[nH]c4=O)C[C@@H]3OP(=O)(O)OC[C@H]3O[C@@H](n4cc(C)c(=O)[nH]c4=O)C[C@@H]3OP(=O)(O)OC[C@H]3O[C@@H](n4cc(C)c(=O)[nH]c4=O)C[C@@H]3OP(=O)(O)OC[C@H]3O[C@@H](n4ccc(N)nc4=O)C[C@@H]3OP(=O)(O)OC[C@H]3O[C@@H](n4ccc(N)nc4=O)C[C@@H]3OP(=O)(O)OC[C@H]3O[C@@H](n4ccc(N)nc4=O)C[C@@H]3OP(=O)(O)O)SCCCCCCN)[C@@H](COP(=O)(O)O[C@H]3C[C@H](n4ccc(N)nc4=O)O[C@@H]3COP(=O)(O)O[C@H]3C[C@H](n4ccc(N)nc4=O)O[C@@H]3COP(=O)(O)O[C@H]3C[C@H](n4ccc(N)nc4=O)O[C@@H]3CO)O2)c(=O)[nH]c1=O | 42 | 0 | 43 | -3 | 27 | 2
Cc1cn([C@H]2C[C@H](OP(=O)(O)OC[C@H]3O[C@@H](n4cc(C)c(=O)[nH]c4=O)C[C@@H]3OP(=O)(O)OC[C@H]3O[C@@H](n4cc(C)c(=O)[nH]c4=O)C[C@@H]3O[P@@](=O)(OC[C@H]3O[C@@H](n4cc(C)c(=O)[nH]c4=O)C[C@@H]3OP(=O)(O)OC[C@H]3O[C@@H](n4cc(C)c(=O)[nH]c4=O)C[C@@H]3OP(=O)(O)OC[C@H]3O[C@@H](n4cc(C)c(=O)[nH]c4=O)C[C@@H]3OP(=O)(O)OC[C@H]3O[C@@H](n4ccc(N)nc4=O)C[C@@H]3OP(=O)(O)OC[C@H]3O[C@@H](n4ccc(N)nc4=O)C[C@@H]3OP(=O)(O)OC[C@H]3O[C@@H](n4ccc(N)nc4=O)C[C@@H]3OP(=O)(O)O)SCCN)[C@@H](COP(=O)(O)O[C@H]3C[C@H](n4ccc(N)nc4=O)O[C@@H]3COP(=O)(O)O[C@H]3C[C@H](n4ccc(N)nc4=O)O[C@@H]3COP(=O)(O)O[C@H]3C[C@H](n4ccc(N)nc4=O)O[C@@H]3CO)O2)c(=O)[nH]c1=O | 45 | 3 | 45 | -1 | 29 | 4
Cc1cn([C@H]2C[C@H](OP(=O)(O)OC[C@H]3O[C@@H](n4cc(C)c(=O)[nH]c4=O)C[C@@H]3OP(=O)(O)OC[C@H]3O[C@@H](n4cc(C)c(=O)[nH]c4=O)C[C@@H]3O[P@@](=O)(OC[C@H]3O[C@@H](n4cc(C)c(=O)[nH]c4=O)C[C@@H]3OP(=O)(O)OC[C@H]3O[C@@H](n4cc(C)c(=O)[nH]c4=O)C[C@@H]3OP(=O)(O)OC[C@H]3O[C@@H](n4cc(C)c(=O)[nH]c4=O)C[C@@H]3OP(=O)(O)OC[C@H]3O[C@@H](n4ccc(N)nc4=O)C[C@@H]3OP(=O)(O)OC[C@H]3O[C@@H](n4ccc(N)nc4=O)C[C@@H]3OP(=O)(O)OC[C@H]3O[C@@H](n4ccc(N)nc4=O)C[C@@H]3OP(=O)(O)O)SCCCCN)[C@@H](COP(=O)(O)O[C@H]3C[C@H](n4ccc(N)nc4=O)O[C@@H]3COP(=O)(O)O[C@H]3C[C@H](n4ccc(N)nc4=O)O[C@@H]3COP(=O)(O)O[C@H]3C[C@H](n4ccc(N)nc4=O)O[C@@H]3CO)O2)c(=O)[nH]c1=O | 44 | 2 | 45 | -1 | 27 | 2
Cc1cn([C@H]2C[C@H](OP(=O)(O)OC[C@H]3O[C@@H](n4cc(C)c(=O)[nH]c4=O)C[C@@H]3OP(=O)(O)OC[C@H]3O[C@@H](n4cc(C)c(=O)[nH]c4=O)C[C@@H]3O[P@@](=O)(OC[C@H]3O[C@@H](n4cc(C)c(=O)[nH]c4=O)C[C@@H]3OP(=O)(O)OC[C@H]3O[C@@H](n4cc(C)c(=O)[nH]c4=O)C[C@@H]3OP(=O)(O)OC[C@H]3O[C@@H](n4cc(C)c(=O)[nH]c4=O)C[C@@H]3OP(=O)(O)OC[C@H]3O[C@@H](n4ccc(N)nc4=O)C[C@@H]3OP(=O)(O)OC[C@H]3O[C@@H](n4ccc(N)nc4=O)C[C@@H]3OP(=O)(O)OC[C@H]3O[C@@H](n4ccc(N)nc4=O)C[C@@H]3OP(=O)(O)O)SCCNCCN)[C@@H](COP(=O)(O)O[C@H]3C[C@H](n4ccc(N)nc4=O)O[C@@H]3COP(=O)(O)O[C@H]3C[C@H](n4ccc(N)nc4=O)O[C@@H]3COP(=O)(O)O[C@H]3C[C@H](n4ccc(N)nc4=O)O[C@@H]3CO)O2)c(=O)[nH]c1=O | 45 | 3 | 45 | -1 | 30 | 5
Cc1cn([C@H]2C[C@H](OP(=O)(O)OC[C@H]3O[C@@H](n4cc(C)c(=O)[nH]c4=O)C[C@@H]3OP(=O)(O)OC[C@H]3O[C@@H](n4cc(C)c(=O)[nH]c4=O)C[C@@H]3O[P@@](=O)(OC[C@H]3O[C@@H](n4cc(C)c(=O)[nH]c4=O)C[C@@H]3OP(=O)(O)OC[C@H]3O[C@@H](n4cc(C)c(=O)[nH]c4=O)C[C@@H]3OP(=O)(O)OC[C@H]3O[C@@H](n4cc(C)c(=O)[nH]c4=O)C[C@@H]3OP(=O)(O)OC[C@H]3O[C@@H](n4ccc(N)nc4=O)C[C@@H]3OP(=O)(O)OC[C@H]3O[C@@H](n4ccc(N)nc4=O)C[C@@H]3OP(=O)(O)OC[C@H]3O[C@@H](n4ccc(N)nc4=O)C[C@@H]3OP(=O)(O)O)SCCCN3CCNCC3)[C@@H](COP(=O)(O)O[C@H]3C[C@H](n4ccc(N)nc4=O)O[C@@H]3COP(=O)(O)O[C@H]3C[C@H](n4ccc(N)nc4=O)O[C@@H]3COP(=O)(O)O[C@H]3C[C@H](n4ccc(N)nc4=O)O[C@@H]3CO)O2)c(=O)[nH]c1=O | 45 | 3 | 45 | -1 | 27 | 2
Cc1cn([C@H]2C[C@H](OP(=O)(O)OC[C@H]3O[C@@H](n4cc(C)c(=O)[nH]c4=O)C[C@@H]3OP(=O)(O)OC[C@H]3O[C@@H](n4cc(C)c(=O)[nH]c4=O)C[C@@H]3O[P@](=O)(OC[C@H]3O[C@@H](n4cc(C)c(=O)[nH]c4=O)C[C@@H]3OP(=O)(O)OC[C@H]3O[C@@H](n4cc(C)c(=O)[nH]c4=O)C[C@@H]3OP(=O)(O)OC[C@H]3O[C@@H](n4cc(C)c(=O)[nH]c4=O)C[C@@H]3OP(=O)(O)OC[C@H]3O[C@@H](n4ccc(N)nc4=O)C[C@@H]3OP(=O)(O)OC[C@H]3O[C@@H](n4ccc(N)nc4=O)C[C@@H]3OP(=O)(O)OC[C@H]3O[C@@H](n4ccc(N)nc4=O)C[C@@H]3OP(=O)(O)O)SCCCN)[C@@H](COP(=O)(O)O[C@H]3C[C@H](n4ccc(N)nc4=O)O[C@@H]3COP(=O)(O)O[C@H]3C[C@H](n4ccc(N)nc4=O)O[C@@H]3COP(=O)(O)O[C@H]3C[C@H](n4ccc(N)nc4=O)O[C@@H]3CO)O2)c(=O)[nH]c1=O | 40 | -2 | 43 | -3 | 24 | -2
Cc1cn([C@H]2C[C@H](OP(=O)(O)OC[C@H]3O[C@@H](n4cc(C)c(=O)[nH]c4=O)C[C@@H]3OP(=O)(O)OC[C@H]3O[C@@H](n4cc(C)c(=O)[nH]c4=O)C[C@@H]3O[P@](=O)(OC[C@H]3O[C@@H](n4cc(C)c(=O)[nH]c4=O)C[C@@H]3OP(=O)(O)OC[C@H]3O[C@@H](n4cc(C)c(=O)[nH]c4=O)C[C@@H]3OP(=O)(O)OC[C@H]3O[C@@H](n4cc(C)c(=O)[nH]c4=O)C[C@@H]3OP(=O)(O)OC[C@H]3O[C@@H](n4ccc(N)nc4=O)C[C@@H]3OP(=O)(O)OC[C@H]3O[C@@H](n4ccc(N)nc4=O)C[C@@H]3OP(=O)(O)OC[C@H]3O[C@@H](n4ccc(N)nc4=O)C[C@@H]3OP(=O)(O)O)SCCCN3CCNCC3)[C@@H](COP(=O)(O)O[C@H]3C[C@H](n4ccc(N)nc4=O)O[C@@H]3COP(=O)(O)O[C@H]3C[C@H](n4ccc(N)nc4=O)O[C@@H]3COP(=O)(O)O[C@H]3C[C@H](n4ccc(N)nc4=O)O[C@@H]3CO)O2)c(=O)[nH]c1=O | 41 | -1 | 43 | -3 | 23 | -3
Cc1cn([C@H]2C[C@H](OP(=O)(O)OC[C@H]3O[C@@H](n4cc(C)c(=O)[nH]c4=O)C[C@@H]3OP(=O)(O)OC[C@H]3O[C@@H](n4cc(C)c(=O)[nH]c4=O)C[C@@H]3O[P@@](=O)(OC[C@H]3O[C@@H](n4cc(C)c(=O)[nH]c4=O)C[C@@H]3OP(=O)(O)OC[C@H]3O[C@@H](n4cc(C)c(=O)[nH]c4=O)C[C@@H]3OP(=O)(O)OC[C@H]3O[C@@H](n4cc(C)c(=O)[nH]c4=O)C[C@@H]3OP(=O)(O)OC[C@H]3O[C@@H](n4ccc(N)nc4=O)C[C@@H]3OP(=O)(O)OC[C@H]3O[C@@H](n4ccc(N)nc4=O)C[C@@H]3OP(=O)(O)OC[C@H]3O[C@@H](n4ccc(N)nc4=O)C[C@@H]3OP(=O)(O)O)SCCNCCCN)[C@@H](COP(=O)(O)O[C@H]3C[C@H](n4ccc(N)nc4=O)O[C@@H]3COP(=O)(O)O[C@H]3C[C@H](n4ccc(N)nc4=O)O[C@@H]3COP(=O)(O)O[C@H]3C[C@H](n4ccc(N)nc4=O)O[C@@H]3CO)O2)c(=O)[nH]c1=O | 45 | 3 | 46 | 0 | 31 | 6
